Source: PubChem BioAssay (NCI)
Values joined by “and” are separate entries in the source; they are usually repeats but may differ in a detail not shown here. Identical values can stand only once.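 Following 48 hours of exposure in 96-well plates, responses at five concentrations were used to interpolate endpoints linearly. GI50: concentration for 50% inhibition of growth. TGI is the concentration that stops growth completely.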

test system: CCRF-CEM leukemia; assay: growth of human tumour cells (NCI), 48 h

Point of comparison: `NC(=S)N/N=C\c1nccc2c(C(F)(F)F)cccc12`, TGI 12.1 µM. Against it:
- O=C(Nc1nc(=S)[nH][nH]1)C(=O)C(C(=O)c1ccc2ccccc2c1)C1OC(=O)c2ccccc21 (centres undefined) — 6.7-fold higher, 80.7 µM
- Cc1nc(-c2nc(C)c(C(=O)NNC(=O)C[n+]3ccccc3)s2)sc1C(=O)NNC(=O)C[n+]1ccccc1 — higher, > 100 µM
- CN(C)C=Nc1nc(=O)n(C2CCC(CO)O2)cc1F (centres undefined) — higher, > 100 µM
- O=c1[nH]c(-c2ccccc2)nc2cc(Cl)ccc12 — higher, > 100 µM
- COCCn1cc(-c2nc(-c3cc4cccnc4[nH]3)cs2)c2cc(OC)ccc21 — higher, > 100 µM
- O=[N+]([O-])c1cc([N+](=O)[O-])c(C(F)(F)F)cc1NN=C(c1ccc(O)cc1)c1ccc(O)cc1 — within 1.5-fold, 14.4 µM
- NCCNCCNCCN — higher, > 100 µM
- c1ccc(Nc2ncc(-c3ccccc3)o2)cc1 — higher, > 25 µM
- COc1c2ccccc2c(OC)c2[nH]c(=O)ccc12 — higher, > 100 µM
- O=C(O)C(Cl)Cl — higher, > 10000 µM
- CC(=O)N[C@@H](Cc1ccc(OP(=O)(O)O)cc1)C(=O)N[C@H]1CCC(=O)N2CCC[C@@H](C(=O)Nc3cccc4ccccc34)N2C1=O — higher, > 25 µM
- CN1CCN(c2ccc(Nc3ncc(Cl)c(NC[C@@H]4CCCO4)n3)cc2)CC1 — within 1.5-fold, 9.04 µM

Point of comparison: `COCCn1cc(-c2nc(-c3cc4cccnc4[nH]3)cs2)c2cc(OC)ccc21`, GI50 4.54 µM. Against it:
- O=[N+]([O-])c1cc([N+](=O)[O-])c(C(F)(F)F)cc1NN=C(c1ccc(O)cc1)c1ccc(O)cc1 — within 1.5-fold, 3.71 µM
- NCCNCCNCCN — higher, > 100 µM
- c1ccc(Nc2ncc(-c3ccccc3)o2)cc1 — higher, > 25 µM
- COc1c2ccccc2c(OC)c2[nH]c(=O)ccc12 — higher, > 24.5 µM
- NC(=S)N/N=C\c1nccc2c(C(F)(F)F)cccc12 — 16-fold lower, 0.278 µM
- CC(=O)N[C@@H](Cc1ccc(OP(=O)(O)O)cc1)C(=O)N[C@H]1CCC(=O)N2CCC[C@@H](C(=O)Nc3cccc4ccccc34)N2C1=O — higher, > 25 µM
- CN1CCN(c2ccc(Nc3ncc(Cl)c(NC[C@@H]4CCCO4)n3)cc2)CC1 — 9.7-fold lower, 0.466 µM

For `O=C(O)C(Cl)Cl`, the GI50 was 4920 µM and > 4680 µM.

test system: DMS 273 small cell lung; assay: growth of human tumour cells (NCI), 48 h

Point of comparison: `O=C(Nc1nc(=S)[nH][nH]1)C(=O)C(C(=O)c1ccc2ccccc2c1)C1OC(=O)c2ccccc21` (centres undefined), TGI 87.5 µM. Against it:
- CN(C)C=Nc1nc(=O)n(C2CCC(CO)O2)cc1F (centres undefined) — higher, > 100 µM
- O=c1[nH]c(-c2ccccc2)nc2cc(Cl)ccc12 — higher, > 100 µM

test system: NCI-H226 lung; assay: growth of human tumour cells (NCI), 48 h

Point of comparison: `O=[N+]([O-])c1cc([N+](=O)[O-])c(C(F)(F)F)cc1NN=C(c1ccc(O)cc1)c1ccc(O)cc1`, TGI 23.7 µM. Against it:
- O=C(Nc1nc(=S)[nH][nH]1)C(=O)C(C(=O)c1ccc2ccccc2c1)C1OC(=O)c2ccccc21 (centres undefined) — within 1.5-fold, 19.8 µM
- Cc1nc(-c2nc(C)c(C(=O)NNC(=O)C[n+]3ccccc3)s2)sc1C(=O)NNC(=O)C[n+]1ccccc1 — higher, > 100 µM
- CN(C)C=Nc1nc(=O)n(C2CCC(CO)O2)cc1F (centres undefined) — higher, > 100 µM
- O=c1[nH]c(-c2ccccc2)nc2cc(Cl)ccc12 — higher, > 100 µM
- CCOC(=O)C1Sc2ccccc2N=C1C (centres undefined) — higher, > 100 µM
- COCCn1cc(-c2nc(-c3cc4cccnc4[nH]3)cs2)c2cc(OC)ccc21 — within 1.5-fold, 27.6 µM
- NCCNCCNCCN — higher, > 100 µM
- c1ccc(Nc2ncc(-c3ccccc3)o2)cc1 — higher, > 25 µM
- COc1c2ccccc2c(OC)c2[nH]c(=O)ccc12 — 3.3-fold lower, 7.22 µM
- O=C(O)C(Cl)Cl — higher, > 10000 µM
- NC(=S)N/N=C\c1nccc2c(C(F)(F)F)cccc12 — 9.9-fold lower, 2.39 µM
- CC(=O)N[C@@H](Cc1ccc(OP(=O)(O)O)cc1)C(=O)N[C@H]1CCC(=O)N2CCC[C@@H](C(=O)Nc3cccc4ccccc34)N2C1=O — higher, > 25 µM
- CN1CCN(c2ccc(Nc3ncc(Cl)c(NC[C@@H]4CCCO4)n3)cc2)CC1 — 3.7-fold lower, 6.47 µM

Point of comparison: `CN1CCN(c2ccc(Nc3ncc(Cl)c(NC[C@@H]4CCCO4)n3)cc2)CC1`, GI50 0.266 µM. Against it:
- COCCn1cc(-c2nc(-c3cc4cccnc4[nH]3)cs2)c2cc(OC)ccc21 — 5.9-fold higher, 1.57 µM
- O=[N+]([O-])c1cc([N+](=O)[O-])c(C(F)(F)F)cc1NN=C(c1ccc(O)cc1)c1ccc(O)cc1 — 15-fold higher, 4.03 µM
- NCCNCCNCCN — higher, > 100 µM
- c1ccc(Nc2ncc(-c3ccccc3)o2)cc1 — higher, > 25 µM
- COc1c2ccccc2c(OC)c2[nH]c(=O)ccc12 — 8.9-fold higher, 2.37 µM
- NC(=S)N/N=C\c1nccc2c(C(F)(F)F)cccc12 — within 1.5-fold, 0.259 µM
- CC(=O)N[C@@H](Cc1ccc(OP(=O)(O)O)cc1)C(=O)N[C@H]1CCC(=O)N2CCC[C@@H](C(=O)Nc3cccc4ccccc34)N2C1=O — higher, > 25 µM

With `O=C(O)C(Cl)Cl` the GI50 was 8130 µM and > 10000 µM.

test system: OVCAR-3 ovarian; assay: growth of human tumour cells (NCI), 48 h

Point of comparison: `COCCn1cc(-c2nc(-c3cc4cccnc4[nH]3)cs2)c2cc(OC)ccc21`, TGI 21.7 µM. Against it:
- O=C(Nc1nc(=S)[nH][nH]1)C(=O)C(C(=O)c1ccc2ccccc2c1)C1OC(=O)c2ccccc21 (centres undefined) — 3.1-fold higher, 67 µM
- Cc1nc(-c2nc(C)c(C(=O)NNC(=O)C[n+]3ccccc3)s2)sc1C(=O)NNC(=O)C[n+]1ccccc1 — higher, > 100 µM
- CN(C)C=Nc1nc(=O)n(C2CCC(CO)O2)cc1F (centres undefined) — higher, > 100 µM
- O=c1[nH]c(-c2ccccc2)nc2cc(Cl)ccc12 — higher, > 100 µM
- CCOC(=O)C1Sc2ccccc2N=C1C (centres undefined) — higher, > 100 µM
- O=[N+]([O-])c1cc([N+](=O)[O-])c(C(F)(F)F)cc1NN=C(c1ccc(O)cc1)c1ccc(O)cc1 — 3.6-fold lower, 6.11 µM
- NCCNCCNCCN — higher, > 100 µM
- c1ccc(Nc2ncc(-c3ccccc3)o2)cc1 — higher, > 25 µM
- COc1c2ccccc2c(OC)c2[nH]c(=O)ccc12 — 3.1-fold lower, 6.89 µM
- O=C(O)C(Cl)Cl — higher, > 10000 µM
- NC(=S)N/N=C\c1nccc2c(C(F)(F)F)cccc12 — 2-fold lower, 10.8 µM
- CC(=O)N[C@@H](Cc1ccc(OP(=O)(O)O)cc1)C(=O)N[C@H]1CCC(=O)N2CCC[C@@H](C(=O)Nc3cccc4ccccc34)N2C1=O — higher, > 25 µM
- CN1CCN(c2ccc(Nc3ncc(Cl)c(NC[C@@H]4CCCO4)n3)cc2)CC1 — higher, > 100 µM

Point of comparison: `COCCn1cc(-c2nc(-c3cc4cccnc4[nH]3)cs2)c2cc(OC)ccc21`, GI50 4.28 µM. Against it:
- O=[N+]([O-])c1cc([N+](=O)[O-])c(C(F)(F)F)cc1NN=C(c1ccc(O)cc1)c1ccc(O)cc1 — 1.8-fold lower, 2.42 µM
- NCCNCCNCCN — higher, > 100 µM
- c1ccc(Nc2ncc(-c3ccccc3)o2)cc1 — higher, > 25 µM
- COc1c2ccccc2c(OC)c2[nH]c(=O)ccc12 — 1.9-fold lower, 2.31 µM
- NC(=S)N/N=C\c1nccc2c(C(F)(F)F)cccc12 — 15-fold lower, 0.294 µM
- CC(=O)N[C@@H](Cc1ccc(OP(=O)(O)O)cc1)C(=O)N[C@H]1CCC(=O)N2CCC[C@@H](C(=O)Nc3cccc4ccccc34)N2C1=O — higher, > 25 µM
- CN1CCN(c2ccc(Nc3ncc(Cl)c(NC[C@@H]4CCCO4)n3)cc2)CC1 — 1.7-fold lower, 2.53 µM

For `O=C(O)C(Cl)Cl`, the GI50 was 4710 µM and > 10000 µM.

test system: OVCAR-8 ovarian; assay: growth of human tumour cells (NCI), 48 h

Point of comparison: `COCCn1cc(-c2nc(-c3cc4cccnc4[nH]3)cs2)c2cc(OC)ccc21`, TGI 45.3 µM. Against it:
- O=C(Nc1nc(=S)[nH][nH]1)C(=O)C(C(=O)c1ccc2ccccc2c1)C1OC(=O)c2ccccc21 (centres undefined) — 2.1-fold higher, 94.4 µM
- Cc1nc(-c2nc(C)c(C(=O)NNC(=O)C[n+]3ccccc3)s2)sc1C(=O)NNC(=O)C[n+]1ccccc1 — higher, > 100 µM
- CN(C)C=Nc1nc(=O)n(C2CCC(CO)O2)cc1F (centres undefined) — higher, > 100 µM
- O=c1[nH]c(-c2ccccc2)nc2cc(Cl)ccc12 — higher, > 100 µM
- CCOC(=O)C1Sc2ccccc2N=C1C (centres undefined) — higher, > 100 µM
- O=[N+]([O-])c1cc([N+](=O)[O-])c(C(F)(F)F)cc1NN=C(c1ccc(O)cc1)c1ccc(O)cc1 — higher, > 100 µM
- NCCNCCNCCN — higher, > 100 µM
- c1ccc(Nc2ncc(-c3ccccc3)o2)cc1 — not separable, > 25 µM
- COc1c2ccccc2c(OC)c2[nH]c(=O)ccc12 — higher, > 100 µM
- O=C(O)C(Cl)Cl — higher, > 10000 µM
- NC(=S)N/N=C\c1nccc2c(C(F)(F)F)cccc12 — 1.9-fold lower, 24 µM
- CC(=O)N[C@@H](Cc1ccc(OP(=O)(O)O)cc1)C(=O)N[C@H]1CCC(=O)N2CCC[C@@H](C(=O)Nc3cccc4ccccc34)N2C1=O — not separable, > 25 µM
- CN1CCN(c2ccc(Nc3ncc(Cl)c(NC[C@@H]4CCCO4)n3)cc2)CC1 — higher, > 100 µM

Point of comparison: `COCCn1cc(-c2nc(-c3cc4cccnc4[nH]3)cs2)c2cc(OC)ccc21`, GI50 3.56 µM. Against it:
- O=[N+]([O-])c1cc([N+](=O)[O-])c(C(F)(F)F)cc1NN=C(c1ccc(O)cc1)c1ccc(O)cc1 — within 1.5-fold, 4.2 µM
- NCCNCCNCCN — higher, > 100 µM
- c1ccc(Nc2ncc(-c3ccccc3)o2)cc1 — higher, > 25 µM
- COc1c2ccccc2c(OC)c2[nH]c(=O)ccc12 — 3.8-fold higher, 13.6 µM
- O=C(O)C(Cl)Cl — higher, > 10000 µM
- NC(=S)N/N=C\c1nccc2c(C(F)(F)F)cccc12 — 12-fold lower, 0.308 µM
- CC(=O)N[C@@H](Cc1ccc(OP(=O)(O)O)cc1)C(=O)N[C@H]1CCC(=O)N2CCC[C@@H](C(=O)Nc3cccc4ccccc34)N2C1=O — higher, > 25 µM
- CN1CCN(c2ccc(Nc3ncc(Cl)c(NC[C@@H]4CCCO4)n3)cc2)CC1 — within 1.5-fold, 4.02 µM
